Laboratory results as given in ChEMBL document CHEMBL1137095, “Synthesis and radioiodination of selective ligands for the dopamine D3 receptor subtype” (Bioorg Med Chem Lett, 2004).

Columns and labels:
[1] = Binding affinity towards 5-HT2 receptor from porcine cortical membranes using [3H]ketanserin
[2] = target: D(1A) dopamine receptor (Sus scrofa, UniProt P50130); test: Binding affinity towards D1 receptor from porcine striatal membranes using [3H]-SCH- 23390
[3] = target: D(3) dopamine receptor (Homo sapiens, UniProt P35462); test: biochemical
Chain of D(3) dopamine receptor (P35462 whole entry): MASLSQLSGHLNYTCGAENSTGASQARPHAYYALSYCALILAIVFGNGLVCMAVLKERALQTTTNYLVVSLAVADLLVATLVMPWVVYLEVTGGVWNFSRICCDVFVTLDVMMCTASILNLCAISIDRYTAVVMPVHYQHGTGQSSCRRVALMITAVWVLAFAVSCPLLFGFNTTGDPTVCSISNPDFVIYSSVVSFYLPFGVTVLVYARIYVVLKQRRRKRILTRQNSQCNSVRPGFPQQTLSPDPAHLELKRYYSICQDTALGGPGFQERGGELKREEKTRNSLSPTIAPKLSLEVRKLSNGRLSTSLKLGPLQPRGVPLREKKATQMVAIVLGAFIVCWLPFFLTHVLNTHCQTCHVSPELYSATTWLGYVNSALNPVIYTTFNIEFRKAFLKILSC
Description: Binding affinity towards human D3 receptor using [3H]spiperone expressed in CHO cells

[4] = target: T1, D(2) dopamine receptor (Homo sapiens, UniProt P14416); test: biochemical
T1 sequence (P14416 whole entry): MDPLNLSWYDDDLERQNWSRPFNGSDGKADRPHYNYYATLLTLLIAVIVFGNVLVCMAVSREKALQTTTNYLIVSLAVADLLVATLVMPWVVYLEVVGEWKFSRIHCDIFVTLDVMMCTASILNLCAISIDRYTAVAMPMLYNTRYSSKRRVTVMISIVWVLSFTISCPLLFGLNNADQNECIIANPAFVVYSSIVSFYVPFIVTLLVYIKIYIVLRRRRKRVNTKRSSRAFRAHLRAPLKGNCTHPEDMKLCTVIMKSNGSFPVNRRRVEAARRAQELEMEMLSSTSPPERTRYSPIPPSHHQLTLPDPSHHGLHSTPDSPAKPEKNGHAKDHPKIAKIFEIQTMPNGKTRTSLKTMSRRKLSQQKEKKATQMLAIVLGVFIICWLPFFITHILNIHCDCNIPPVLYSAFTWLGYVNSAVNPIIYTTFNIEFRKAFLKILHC
Description: Binding affinity towards human D2 short receptor using [3H]spiperone expressed in CHO cells

[5] = target: T1, D(2) dopamine receptor; test: biochemical; remark: listed apart in the source
Description: Binding affinity towards human D2 long receptor using [3H]spiperone expressed in CHO cells

[6] = target: T2, D(4) dopamine receptor (Homo sapiens, UniProt P21917); test: biochemical
T2 sequence (P21917 whole entry): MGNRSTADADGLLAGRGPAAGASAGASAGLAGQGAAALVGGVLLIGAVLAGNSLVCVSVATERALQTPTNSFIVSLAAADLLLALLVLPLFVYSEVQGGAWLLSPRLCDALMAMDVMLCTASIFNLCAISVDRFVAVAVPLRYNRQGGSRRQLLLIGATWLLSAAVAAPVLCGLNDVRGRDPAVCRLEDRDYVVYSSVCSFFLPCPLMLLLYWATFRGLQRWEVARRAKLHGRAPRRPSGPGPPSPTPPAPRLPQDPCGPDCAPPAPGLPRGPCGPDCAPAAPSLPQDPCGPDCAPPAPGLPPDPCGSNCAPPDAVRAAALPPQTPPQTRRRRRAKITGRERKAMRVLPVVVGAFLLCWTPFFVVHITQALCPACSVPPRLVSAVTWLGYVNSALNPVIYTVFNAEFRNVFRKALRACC
Description: Binding affinity towards human D4.4 receptor using [3H]spiperone expressed in CHO cells

Chain of D(1A) dopamine receptor (P50130 whole entry): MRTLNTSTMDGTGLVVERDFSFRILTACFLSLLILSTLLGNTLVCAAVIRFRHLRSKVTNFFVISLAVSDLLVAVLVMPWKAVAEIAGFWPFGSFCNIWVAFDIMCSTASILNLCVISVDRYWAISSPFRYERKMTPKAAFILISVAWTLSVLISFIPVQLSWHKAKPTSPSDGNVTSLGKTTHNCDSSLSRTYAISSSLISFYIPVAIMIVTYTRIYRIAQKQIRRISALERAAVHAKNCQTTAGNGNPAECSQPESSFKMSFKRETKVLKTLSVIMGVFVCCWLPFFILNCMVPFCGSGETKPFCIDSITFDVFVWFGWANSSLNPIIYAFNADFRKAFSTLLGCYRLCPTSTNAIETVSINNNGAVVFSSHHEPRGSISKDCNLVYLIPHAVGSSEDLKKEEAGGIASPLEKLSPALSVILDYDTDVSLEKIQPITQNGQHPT

| Structure (SMILES) | Ki [1] [nM] | Ki [2] [nM] | Ki [3] [nM] | Ki [4] [nM] | Ki [5] [nM] | Ki [6] [nM] |
| --- | --- | --- | --- | --- | --- | --- |
| COc1ccccc1N1CCN(CCCCNC(=O)c2ccc(I)s2)CC1 | 690 | 600 | 2.4 | 35 | 75 | 31 |
| O=C(NCCCCN1CCN(c2cccc(Cl)c2Cl)CC1)c1cc2cc(I)ccc2s1 | 290 | 1400 | 4.5 | 140 | 450 | 550 |
| COc1ccccc1N1CCN(CCCCNC(=O)c2cc3cc(I)ccc3o2)CC1 | 230 | 420 | 1.4 | 27 | – | 46 |
| O=C(NCCCCN1CCN(c2cccc(Cl)c2Cl)CC1)c1cc2ccccc2s1 | 3000 | – | – | – | – | – |
| O=C(NCCCCN1CCN(c2cccc(Cl)c2Cl)CC1)c1ccc(I)s1 | 210 | 820 | 1.4 | 32 | 89 | 130 |
| COc1ccccc1N1CCN(CCCCNC(=O)c2cc3cc(I)ccc3s2)CC1 | 250 | 520 | 0.86 | 1 | 48 | 42 |
| O=C(NCCCCN1CCN(c2cccc(Cl)c2Cl)CC1)c1cc2cc(I)ccc2o1 | 790 | 3300 | – | 430 | 3200 | 2200 |
